Assay results reported in PubChem BioAssay (NCI).
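These data come from cells grown in 96-well plates and exposed to compound for 48 hours at five concentrations. Definition used: TGI = concentration required for complete inhibition of growth.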

Legend:
Assay in all cases: inhibition of tumour cell growth, NCI panel, 48 h
M19-MEL melanoma = test system: M19-MEL melanoma
LXFL 529 NSCLC = test system: LXFL 529 NSCLC
DMS 114 small cell lung = test system: DMS 114 small cell lung

Measured: TGI

COC(=O)C1=C(C)N2CCOC2CC1c1ccccc1 (stereo not drawn)
> 100 µM: all assays above
